Source: US9249140B2, “Bicyclic heteroaromatic compounds” (MERCK PATENT GMBH, priority 2011, dated 2016)
pIC50: −log10 of the molar value.

Tests used:
FAK [1] = target: T1, FAK (Homo sapiens, UniProt Q05397); assay: FAK kinase assay (autophosphorylation), 384-well flashplate; assay type: biochemical; conditions: enzymatic; 1 μM ATP; read-out: IC50 (enzymatic), FAK inhibition
T1 construct: 2 nM FAK, 400 nM biotinylated substrate
Description: The focal adhesion kinase (FAK) assay is carried out either as a 384-well flashplate assay (for example for Topcount measurements) or as a 384-well image flashplate assay (for LEADseeker measurements). […] The reaction is stopped using 25 μl of 200 mM EDTA. After 30 min at 30° C., the liquid is removed, and each well is washed three times with 100 μl of 0.9% sodium chloride solution. Non-specific reaction is determined in the presence of 1 μM EMD 1076893/0(PF-562271). The radioactivity is measured using Topcount (in the case of the use of flashplates) or using LEADseeker (in the case of the use of image flashplates).

FAK [2] = target: T1, FAK; assay: Cellular testing of FAK kinase inhibitors: autophosphorylation of FAK at tyrosine 397, Luminex-based assay in HT29 cells; assay type: cell-based; conditions: P-Y397-FAK in HT29 cells, 30 min, serum-free, read-out: IC50 (cellular), FAK inhibition
Description: For analysis of the cellular activity of FAK, the extent of autophosphorylation of FAK at tyrosine 397 is determined with the aid of a Luminex-based assay in the 96-well format. HT29 cells are sown out with 30,000 cells per well in 100 μl of medium (90% of DMEM/10% of FCS) and incubated on the following day for 30 min with a serial dilution of the test substance (7 concentrations) under serum-free conditions. The cells are subsequently lysed using 90 μl of lysis buffer (20 mM tris/HCl pH 8.0, 150 mM NaCl, 1% of NP40, 10% of glycerol, 1% of phosphatase inhibitor II, 20 mM β-glycerol phosphate, 0.1% of protease inhibitor cocktail III, 0.01% of benzonase) per well, and the lysates are separated off from insoluble cell constituents by means of centrifugation through a 96-well filter plate (0.65 μm). The lysates are incubated at 4° C. overnight with shaking with Luminex beads to which an anti-total FAK antibody is coupled. The detection is carried out on the following day by addition of a P-Y397-FAK antibody and a species-specific PE-labelled secondary antibody. P-Y397-FAK is detected by measurement in the Luminex100 instrument by determination of 100 events per cavity in a measurement time of 60 sec. […] The values of the batches treated with test substance are calculated therefrom as percent of control, and IC50 values are determined by means of Assay Explorer.

T1 sequence (Q05397 whole entry): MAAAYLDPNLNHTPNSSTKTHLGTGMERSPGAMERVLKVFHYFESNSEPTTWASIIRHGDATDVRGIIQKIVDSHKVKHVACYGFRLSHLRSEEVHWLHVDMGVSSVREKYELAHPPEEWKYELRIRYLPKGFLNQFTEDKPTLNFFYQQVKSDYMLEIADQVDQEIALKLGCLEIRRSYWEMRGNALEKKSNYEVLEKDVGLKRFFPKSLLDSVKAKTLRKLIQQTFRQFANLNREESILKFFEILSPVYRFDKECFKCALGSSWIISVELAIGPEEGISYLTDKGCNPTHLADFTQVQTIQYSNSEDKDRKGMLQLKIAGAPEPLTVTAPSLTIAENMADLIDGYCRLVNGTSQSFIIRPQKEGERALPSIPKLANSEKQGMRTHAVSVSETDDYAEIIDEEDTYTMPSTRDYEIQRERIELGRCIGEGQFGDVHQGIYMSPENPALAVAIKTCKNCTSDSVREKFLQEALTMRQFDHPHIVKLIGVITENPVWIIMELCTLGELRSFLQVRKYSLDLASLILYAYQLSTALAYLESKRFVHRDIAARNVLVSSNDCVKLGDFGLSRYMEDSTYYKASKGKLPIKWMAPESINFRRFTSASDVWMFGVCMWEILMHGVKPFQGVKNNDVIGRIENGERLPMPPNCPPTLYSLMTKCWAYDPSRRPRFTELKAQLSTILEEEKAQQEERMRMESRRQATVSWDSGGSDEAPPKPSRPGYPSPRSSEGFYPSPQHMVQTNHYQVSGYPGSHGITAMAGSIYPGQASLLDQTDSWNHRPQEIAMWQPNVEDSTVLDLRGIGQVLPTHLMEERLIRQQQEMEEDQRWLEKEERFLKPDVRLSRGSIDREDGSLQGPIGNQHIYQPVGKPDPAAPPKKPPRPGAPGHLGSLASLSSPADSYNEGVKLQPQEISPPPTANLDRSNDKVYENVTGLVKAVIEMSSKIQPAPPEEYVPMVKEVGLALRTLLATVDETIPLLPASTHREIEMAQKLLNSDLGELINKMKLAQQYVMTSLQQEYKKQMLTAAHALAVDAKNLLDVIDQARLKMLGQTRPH

## CN(c1ncccc1CNc1c(C#N)cnc2[nH]cc(Cl)c12)S(C)(=O)=O [A10, N-{3-[(3-Chloro-5-cyano-1H-pyrrolo[2,3-b]-pyridin-4-ylamino)methyl]pyridin-2-yl}-N-methylmethanesulfonamide]
FAK [1]
  pIC50: 5.52 to 6.52
FAK [2]
  pIC50: 4.30 to 5.52
